Measurements from patent US7601717B2, “Pterin analogs” (BioMarin Pharmaceutical Inc., priority 2008, dated 2009).

Tests used:
Assay type in all cases: in vitro ADME
Details in all cases: over a 60 minute period, compound remaining
[1] = Stability in simulated gastric fluid
Procedure: (§1) The stability of various compounds as disclosed herein was tested in human and rat and in simulated gastric fluid. Each compound was tested over an hour period for concentration of the compound remaining at each time point. The results are shown in FIGS. 3 (human plasma stability), 4 (rat plasma stability), and 5 (simulated gastric fluid stability) for the compounds of Example 2, 3, 4, and 20.

Stability in rat plasma = assay: Stability in rat plasma
Procedure: as §1

[2] = Stability in human plasma
Procedure: as §1

CC(=O)O[C@@H]([C@H](C)OC(C)=O)[C@H]1CNc2nc(N)[nH]c(=O)c2N1C(C)=O [Example 2, Acetic acid 2-acetoxy-1-(5-acetyl-2-amino-4-oxo-3,4,5,6,7,8-hexahydro-pteridin-6-yl)-propyl ester]
high level of stability: stability in simulated gastric fluid [1] | stability in rat plasma (Stability in rat plasma) | stability in human plasma [2]
